In the experiment the test system is mouse kidney organoid. Description: Kidney fibrosis model by TGF-β treatment of kidney organoid. It counts as cell-based. The protocol: A kidney fibrosis model was constructed using a kidney organoid cultured in the KEM hydrogel. To this end, kidney fibrosis was induced by treatment of a mouse kidney organoid with TGF-b. On day 9 of kidney organoid culture (subculture once on day 7 and additional culture for 2 days), the kidney organoids were treated with each concentration of TGF-β for 3 days and then analyzed on day 12. A kidney organoid not treated with TGF-β (NT, No treatment) was compared as a control group.

Turning to TGF-β, the “Acta2 and Colla1 (fibrosis markers) mRNA expression levels, qPCR” value (TGF-β for 3 days, analyzed day 12) was “increased in proportion to the increase in treatment concentration”. The “kidney organoid morphology and growth” value (each concentration of TGF-β for 3 days, analyzed day 12) is “exhibited morphological changes and did not grow well”. Further, the “hydrogel and organoid appearance after TGF-β” value (organoid cultured in 7 mg/ml KEM hydrogel) is “the KEM hydrogel contracted and fibrosis-induced organoids agglomerated in a mass”. Also, the “Vimentin, COL1, α-SMA (fibrosis markers) expression, immunostaining” value (organoids in Matrigel and KEM scaffolds) is on record as “expression of all fibrosis markers was increased”.

Source of the values: US20240026300A1, “KIDNEY EXTRACELLULAR MATRIX-DERIVED SCAFFOLD FOR CULTURE AND TRANSPLANTATION OF KIDNEY ORGANOID AND METHOD OF PREPARING THE SAME” (CELLARTGEN INC., priority 2020, published 2024).
